The structures appear in SMILES notation. Where two headings read alike, the source gives them in different places.

Data set [1] addresses T1, Rac1 (Homo sapiens (Human), UniProt P63000). Put plainly: Rac Activation AlphaScreen Assay (RacI AS). Format: biochemical. How it is done: 2. Rac Activation AlphaScreen Assay (RacI AS)
AlphaScreen® assays were performed in 96-well microplates in a final reaction volume of 60 μL. Recombinant His-Rac1, recombinant GST-PBD (PAK Binding Domain), donor and acceptor beads (PerkinElmer), and inhibitors were incubated in exchange buffer (20 mM Tris pH 7.5, 50 mM NaCl, 1 mM MgCl2, 1 mM EDTA, 500 nM GTPyS (guanosine 5′-[Y-thio]triphosphate)) at 37° C. Readings were performed on a Tecan M 1000 pro microplate reader after 1 hour. Data was analyzed using the GraphPad Prism software (GraphPad Software, Inc.), and IC50 (dose leading to 50% disruption of complex) was calculated from the dose-response curves.

Data set [2] deals with MCF-7 human breast cancer cell line. The experiment in a line: Cell Viability Assay (MCF7). Format: cell-based. The note with it: MCF7, three days after drug treatment. How it is done: 1. Cell Viability Assay (MCF7)
In order to determine a compound's effect on cell viability, PrestoBlue assays were performed as previously described by Kuhn et al. (2013) with modifications. MCF-7 human breast cancer and IGR-1 human melanoma cell lines were seeded into 384-well plates 24 hours prior to addition of drug. Cells are treated with 0 to 100 μM (concentrations) of compound solubilized in DMSO, adjusting the final concentration of DMSO to 0.5% in the well. Three days after drug treatment, cell viability was measured by adding Cell Titer Glo (Promega.; cat. No. G7570) according to the manufacturer's instructions. Briefly, Cell Titer Glo Substrate is diluted in Cell Titer Glo Buffer making the Cell Titer Glo Reagent. Cell Titer Glo Reagent is added to each well, mixed for 2 minutes to lyse cell, and then luficerase signal is read on a plate reader. Data is analyzed using the GraphPad Prism software (GraphPad Software, Inc.), and IC50 (dose leading to 50% cell death) was calculated from the dose-response curves. The percentage of living cells was then computed by comparison with control wells. Kuhn, Jonas et al., Assay and Drug Development Technologies, March 2013, Label-Free Cytotoxicity Screening Assay by Digital Holographic Microscopy.

Another data set addresses c-M et (Homo sapiens (Human), UniProt P08581). Put plainly: commercial kinase screen (KinaseScan by Eurofins Discovery), c-Met. It counts as binding. The conditions noted are these: at a concentration that was substantially inhibitory for Rac1. How it is done:
(§1) The disclosed compounds in general have no or minimal activity against c-M et. Representative compounds were tested in a commercial kinase screen of over 90 kinases (KinaseScan by Eurofins Discovery).

For a further data set, the system named is over 90 kinases. Put plainly: commercial kinase screen (KinaseScan by Eurofins Discovery). It counts as binding. The note with it: at a concentration that was substantially inhibitory for Rac1. How it is done: as §1
Data set [3] in a line: Mouse Liver Microsome (MLM) Stability Assay. The note with it: for microsomal CLint / MLM Clearance (μL/min/mg protein): mouse liver microsomes. Format: in vitro ADME. How it is done: 5. Mouse Liver Microsome (MLM) Stability Assay
Incubation of test compounds with mouse liver microsomes in the presence of NADPH co-factor was used to assay the in vitro mouse liver microsome metabolic clearance rate. In the presence of the co-factor NADPH, which initiates the reaction, mouse liver microsomes were incubated with test compounds at 37° C. at fixed time intervals. After centrifugation, supernatants were measured by LC/M S. The amount of compound at each time interval was compared to the amount of compound present at the 0 minute timepoint and percentage compound remaining values were calculated. MLM intrinsic clearance (Clint) (μL/min/mg protein) is calculated based on compound half-life.

Data set [4] addresses T1, Rac1. Put plainly: Rac Activation AlphaScreen Assay (RacI AS). Format: biochemical. The conditions noted are these: wild type Rac1, AlphaLisa assay; read-out: IC50 inhibitory concentration versus wild type Rac1.
For the next data set, the target named is Rac (Homo sapiens (Human), UniProt P63000). The conditions noted are these: versus NSC23766; cited from earlier work.
For data set [5] the following is noted: oral administration in mice; cited from earlier work.
For data set [6], the system named is estrogen positive and HER2 positive breast cancer, prostate cancer, melanoma and colorectal cancer. The note with it: single agent and in combination with standard of care; cited from earlier work.
Setting [7] is: Table 4, comparator compounds, read-out: IC50.
[8] abbreviates: Table 1, Formula I-A, read-out: Activity.
Setting [9] is: NADPH, 37° C., read-out: MLM Clearance (μL/min/mg protein).
Where [10] appears, read: Table 2, Formula I-B, read-out: IC50.
[11] abbreviates: Table 3, other compounds of Formula I, read-out: IC50.

Sequence of c-M et (P08581 25-1390): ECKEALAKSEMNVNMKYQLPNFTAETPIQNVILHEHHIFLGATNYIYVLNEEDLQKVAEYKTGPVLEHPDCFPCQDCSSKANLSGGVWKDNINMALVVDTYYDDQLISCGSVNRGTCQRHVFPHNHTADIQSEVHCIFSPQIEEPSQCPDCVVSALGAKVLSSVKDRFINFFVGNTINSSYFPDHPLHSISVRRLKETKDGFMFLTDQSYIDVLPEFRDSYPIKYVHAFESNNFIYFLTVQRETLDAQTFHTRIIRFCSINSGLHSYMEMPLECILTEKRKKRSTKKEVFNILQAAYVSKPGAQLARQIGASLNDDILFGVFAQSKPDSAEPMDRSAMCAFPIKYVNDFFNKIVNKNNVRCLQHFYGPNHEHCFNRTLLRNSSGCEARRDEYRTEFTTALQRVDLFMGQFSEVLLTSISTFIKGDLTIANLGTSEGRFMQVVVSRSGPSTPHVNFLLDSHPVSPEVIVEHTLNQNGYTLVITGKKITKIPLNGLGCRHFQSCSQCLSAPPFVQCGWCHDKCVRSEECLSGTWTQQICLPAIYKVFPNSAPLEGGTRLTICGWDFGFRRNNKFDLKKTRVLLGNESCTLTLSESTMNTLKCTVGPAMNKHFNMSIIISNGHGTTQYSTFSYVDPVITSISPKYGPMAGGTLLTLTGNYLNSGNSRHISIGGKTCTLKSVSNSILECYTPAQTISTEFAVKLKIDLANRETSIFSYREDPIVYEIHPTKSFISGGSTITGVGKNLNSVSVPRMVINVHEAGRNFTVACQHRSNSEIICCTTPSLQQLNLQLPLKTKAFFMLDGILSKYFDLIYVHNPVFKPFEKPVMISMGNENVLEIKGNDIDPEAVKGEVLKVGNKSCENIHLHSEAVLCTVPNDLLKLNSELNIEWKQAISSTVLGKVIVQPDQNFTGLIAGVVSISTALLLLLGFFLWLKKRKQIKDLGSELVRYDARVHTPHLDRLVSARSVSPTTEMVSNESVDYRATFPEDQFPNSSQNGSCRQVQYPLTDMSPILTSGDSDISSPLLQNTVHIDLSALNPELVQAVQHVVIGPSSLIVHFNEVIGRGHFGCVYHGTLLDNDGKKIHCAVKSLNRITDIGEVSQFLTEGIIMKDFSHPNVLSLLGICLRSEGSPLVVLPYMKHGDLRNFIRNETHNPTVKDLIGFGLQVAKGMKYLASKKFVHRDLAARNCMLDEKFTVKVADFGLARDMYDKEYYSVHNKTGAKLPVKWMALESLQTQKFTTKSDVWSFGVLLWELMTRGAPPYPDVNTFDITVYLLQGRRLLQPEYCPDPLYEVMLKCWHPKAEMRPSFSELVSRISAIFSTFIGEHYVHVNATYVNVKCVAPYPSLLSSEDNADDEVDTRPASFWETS

As to `COc1ccc(C(=O)Nc2cccc(-c3ccc4nnc(-c5ccc(C)o5)n4n3)c2)cc1OC` [Comparator 1, reference compound], the IC50 on Rac1 [1] (setting [7]) is 1000 to 10000 nM; at Rac1 [1] (read-out: Rac1 IC50) it was > 5000 nM.

Take `COc1cc(C(=O)Nc2cccc(-c3ccc4nnc(-c5ccc(C)o5)n4n3)c2)cc(OC)c1OC` [Comparator 2, reference compound]: the IC50 on Rac1 [1] (setting [7]) was > 10000 nM; at Rac1 [1] (read-out: Rac1 IC50) it was > 5000 nM.

Turning to `COc1ccc(OC)c(C(=O)Nc2cccc(-c3ccc4nnc(-c5ccc(C)o5)n4n3)c2)c1` [Comparator 3, reference compound], the figures for the IC50 on Rac1 [1] (setting [7]) and on Rac1 [1] (read-out: Rac1 IC50) were > 10000 nM and > 5000 nM, respectively.

Turning to `COc1cccc(C(=O)Nc2cccc(-c3ccc4nnc(-c5ccc(C)o5)n4n3)c2)c1` [Compound 100], the IC50 is 11300 nM in data set [2], ≤ 1000 nM at Rac1 [1] (setting [8]) and 80 nM on Rac1 [1] (read-out: Rac1 IC50).

As for `Cc1ccc(-c2nnc3ccc(-c4cccc(NC(=O)c5cccc(Cl)c5)c4)nn23)o1` [Compound 102, 3-chloro-N-(3-(3-(5-methylfuran-2-yl)-[1,2,4]triazolo[4,3-b]pyridazin-6-yl)phenyl)benzamide], at c-M et, the “activity against c-Met” value is “inactive”. Further, the IC50 is 1400 nM in [2] (Homo sapiens, 72 h); ≤ 1000 nM on Rac1 [1] (setting [8]); 520 nM at Rac1 [1] (read-out: Rac1 IC50). Moreover, in the data set on over 90 kinases, the “activity against all kinases tested” value is “inactive”. Further, the microsomal CLint in [3] (setting [9]) turned out to be 19.7 µL/min/mg.

For the compound `Cc1ccc(-c2nnc3ccc(-c4cccc(NC(=O)c5ccc(F)c(Cl)c5)c4)nn23)o1` [Compound 103, 3-chloro-4-fluoro-N-(3-(3-(5-methylfuran-2-yl)-[1,2,4]triazolo[4,3-b]pyridazin-6-yl)phenyl)benzamide], the IC50 is 2300 nM in [2] (Homo sapiens, 72 h); ≤ 1000 nM at Rac1 [1] (setting [8]); 430 nM at Rac1 [1] (read-out: Rac1 IC50). In addition, the microsomal CLint in data set [3] (setting [9]) was 4.5 µL/min/mg.

`Cc1ccc(-c2nnc3ccc(-c4cccc(NC(=O)c5cccc(F)c5)c4)nn23)o1` [Compound 105]: the IC50 in data set [2] is 2000 nM; on Rac1 [1] (setting [8]), ≤ 1000 nM; on Rac1 [1] (read-out: Rac1 IC50), 150 nM. Further, the “MLM Clearance (μL/min/mg protein)” value in data set [3] (NADPH, 37° C.) is 38.7 μL/min/mg protein.

As to `Cc1ccc(-c2nnc3ccc(-c4cccc(NC(=O)c5ccc(F)c(F)c5)c4)nn23)o1` [Compound 106], the values for the IC50 (in [2]; on Rac1 [1] (setting [8]); on Rac1 [1] (read-out: Rac1 IC50)) were 3500 nM, ≤ 1000 nM and 270 nM, respectively. In addition, in data set [3], the MLM clearance result is listed as “below 50 μL/min/mg protein”. Moreover, the “MLM Clearance (μL/min/mg protein)” value in data set [3] (NADPH, 37° C.) was determined as 28.2 μL/min/mg protein.

Consider `Cc1ccc(-c2nnc3ccc(-c4cccc(NC(=O)c5cccc(SC(C)C)c5)c4)nn23)o1` [Compound 109, 3-(isopropylthio)-N-(3-(3-(5-methylfuran-2-yl)-[1,2,4]triazolo[4,3-b]pyridazin-6-yl)phenyl)benzamide], for which, at Rac1 [1] (setting [8]), the IC50 was ≤ 1000 nM.

On to `CCc1cccc(C(=O)Nc2cccc(-c3ccc4nnc(-c5ccc(C)o5)n4n3)c2)c1` [Compound 111, 3-ethyl-N-(3-(3-(5-methylfuran-2-yl)-[1,2,4]triazolo[4,3-b]pyridazin-6-yl)phenyl) benzamide], for which, on Rac1 [1] (setting [8]), the IC50 is ≤ 1000 nM. Further, the MLM clearance entry in data set [3] is reported as “below 50 μL/min/mg protein”.

In the case of `CCc1cc(C(=O)Nc2cccc(-c3ccc4nnc(-c5ccc(C)o5)n4n3)c2)ccc1F` [Compound 114, 3-ethyl-4-fluoro-N-(3-(3-(5-methylfuran-2-yl)-[1,2,4]triazolo[4,3-b]pyridazin-6-yl)phenyl)benzamide], the IC50 at Rac1 [1] (setting [8]) was ≤ 1000 nM. In data set [3] (mouse, read-out: MLM clearance), the microsomal CLint was < 50 µL/min/mg.

Regarding `Cc1ccc(-c2nnc3ccc(-c4cccc(NC(=O)c5cccc(Cl)c5)c4)nn23)o1` [Compound 119, 3-chloro-N-(3-(3-(5-(methyl-d3)furan-2-yl)-[1,2,4]triazolo[4,3-b]pyridazin-6-yl)phenyl) benzamide], the IC50 in [2] worked out at 6300 nM; at Rac1 [1] (read-out: Rac1 IC50), 1500 nM.

Turning to `COc1cccc(C(=O)Nc2cccc(-c3ccc4nnc(-c5cncs5)n4n3)c2)c1` [Compound 200], the IC50 is 1800 nM in [2], ≤ 1000 nM on Rac1 [1] (setting [10]) and 240 nM on Rac1 [1] (read-out: Rac1 IC50). Moreover, the “MLM Clearance (μL/min/mg protein)” value in [3] (NADPH, 37° C.) was determined as 54 μL/min/mg protein.

With `O=C(Nc1cccc(-c2ccc3nnc(-c4cncs4)n3n2)c1)c1ccc(F)cc1` [Compound 201, 4-fluoro-N-(3-(3-(thiazol-5-yl)-[1,2,4]triazolo[4,3-b]pyridazin-6-yl)phenyl)benzamide], the IC50 in [2] (Homo sapiens, 72 h) was 3100 nM; at Rac1 [1] (setting [10]) it was ≤ 1000 nM; on Rac1 [1] (read-out: Rac1 IC50), 170 nM. Moreover, the microsomal CLint in data set [3] (setting [9]) was determined as 15.5 µL/min/mg.

Regarding `Cc1ccc(-c2nnc3ccc(-c4cccc(NC(=O)c5cccc(Cl)c5)c4)nn23)s1` [Compound 303], the IC50 in [2] is > 10000 nM; on Rac1 [1] (setting [11]), 1000 to 10000 nM; on Rac1 [1] (read-out: Rac1 IC50) it was > 5000 nM.

`Cc1ccc(-c2nnc3ccc(-c4cccc(NC(=O)c5ccc(F)cc5)c4)nn23)s1` [Compound 304]: the IC50 in data set [2] is 19800 nM; at Rac1 [1] (setting [11]), ≤ 1000 nM; at Rac1 [1] (read-out: Rac1 IC50) it was 690 nM.

As to `CCn1c2ccccc2c2cc(Nc3ccnc(NCCCN4CCOCC4)n3)ccc21` [EHop-016], the IC50 on Rac1 [4] is ~10000 nM. Also, on Rac, the “efficiency as an inhibitor of Rac activity relative to NSC23766” value was 100 fold. Moreover, the systemic exposure result in data set [5] is given as “low systemic exposure”.

As for `FC(F)(F)c1ccc2c(SCCCCCCn3cnc(CN4CCOCC4)c3)ccnc2c1` [GY S32661], the “activity against animal models of cancer” value in data set [6] is listed as “very good activity”.

The values above are taken from patent US20250346604A1, “TRIAZOLOPYRIDAZINE COMPOUNDS USEFUL AS RAC1 INHIBITORS” (Revere Pharmaceuticals, priority 2022, published 2025).
